# PubChem BioAssay AID2393 (NMMLSC, 2010)
# Activity calls are given as the source filed them.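 The calls were made as follows: active = none, because compounds meeting the potency rule were filed inconclusive for hitting several proteins; inconclusive = EC50 under 20 µM with over 15% binding change; inactive = the rest.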
# Tests used:
# Assay in all cases: small GTPase panel, fluorescent GTP binding blockade – biochemical, Mg buffer, constant GTP, RhoA, Rac1, Cdc42, mechanism study for Ras-family GTPase inhibitor project, profiling panel (AID 2393);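 as to EC50: EC50 marks half change in GTP binding and may reflect gain or loss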
# [1] = biological target: Cell division control protein 42 homolog (Homo sapiens) (UniProt P60953); conditions: GST-GTPase beads, BODIPY-GTP binding, flow cytometry
# [2] = biological target: Ras-related C3 botulinum toxin substrate 1 (Homo sapiens) (UniProt P63000); conditions: GST-GTPase beads, BODIPY-GTP binding, flow cytometry
# [3] = biological target: Transforming protein RhoA (Homo sapiens) (UniProt P61586); conditions: GST-GTPase beads, BODIPY-GTP binding, flow cytometry, at 100 µM (top of the series)
EC50 ([1]; Cdc42ACT) [µM],EC50 ([1]; Cdc42WT) [µM],GTP binding remaining (% of DMSO) ([3]; RhoACT),GTP binding remaining (% of DMSO) ([3]; RhoWT),SMILES,EC50 ([2]; Rac1ACT),EC50 ([2]; Rac1WT),"GTP binding remaining (% of DMSO) ([2]; Rac1ACT, at 100 µM (top of the series))"
5.08,3.95,inactive,inactive,NS(=O)(=O)c1ccc(N2N=C(c3ccccc3)CC2c2cccc(Cl)c2)cc1 (configuration not stated),inactive,inactive,–
1.65,1.49,inactive,inactive,NS(=O)(=O)c1ccc(N2N=C(c3ccccc3)CC2c2ccc(Br)cc2)cc1 (configuration not stated),–,inactive,inactive
